From the supplement of paper PMC8612539
Converted amounts (≈) assume the structure as drawn.

Experiments:
Enterococcus spp. = assay: minimum inhibitory concentration (MIC)
Protocol: (§1)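 Broth microdilution MIC (Sensititre BOPO7F bovine plate, CLSI methods) of 19 antimicrobials against field isolates of P. multocida, M. haemolytica, H. somni (deep nasopharyngeal swabs) and E. coli, Enterococcus spp. (rectal swabs) from weaned dairy heifers. Incubation 16-24 h at 35 C. MIC is the lowest concentration preventing visible growth. Values with <= or > lie at the tested range limits. Trimethoprim-sulfamethoxazole is given as the trimethoprim component of a 1:19 mixture.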

Mannheimia haemolytica = assay: minimum inhibitory concentration (MIC)
Protocol: as §1

CN1C[C@@H]2C[C@H]1CN2c1cc2c(cc1F)c(=O)c(C(=O)O)cn2C1CC1 [Danofloxacin]
minimum inhibitory concentration [µg/mL]
Conditions | Enterococcus spp. | Mannheimia haemolytica
isolate (source animal id): 2 | 0.25 (≈ 0.7 µM) | –
isolate (source animal id): 8 | – | 0.5 (≈ 1.4 µM)
isolate (source animal id): 13 | – | 0.5 (≈ 1.4 µM)
isolate (source animal id): 18 | – | 0.5 (≈ 1.4 µM)
isolate (source animal id): 21 | – | 0.5 (≈ 1.4 µM)
isolate (source animal id): 25 | – | 0.5 (≈ 1.4 µM)
isolate (source animal id): 27 | – | 0.25 (≈ 0.7 µM)
isolate (source animal id): 28 | – | > 1
isolate (source animal id): 30 | – | 0.5 (≈ 1.4 µM)
isolate (source animal id): 31 | – | > 1
isolate (source animal id): 32 | – | 0.25 (≈ 0.7 µM)
isolate (source animal id): 34 | – | 0.5 (≈ 1.4 µM)
isolate (source animal id): 35 | > 1 | –
isolate (source animal id): 36 | – | 0.5 (≈ 1.4 µM)
isolate (source animal id): 37 | – | 0.5 (≈ 1.4 µM)
isolate (source animal id): 40 | – | 0.5 (≈ 1.4 µM)
isolate (source animal id): 41 | – | 0.5 (≈ 1.4 µM)
isolate (source animal id): 42 | 1 (≈ 2.8 µM) | –
isolate (source animal id): 43 | – | 0.5 (≈ 1.4 µM)
isolate (source animal id): 44 | 1 (≈ 2.8 µM) | –
isolate (source animal id): 46 | – | 0.5 (≈ 1.4 µM)
isolate (source animal id): 49 | – | 0.5 (≈ 1.4 µM)
isolate (source animal id): 50 | – | 0.5 (≈ 1.4 µM)
isolate (source animal id): 51 | – | 0.5 (≈ 1.4 µM)
isolate (source animal id): 52 | – | 0.5 (≈ 1.4 µM)
isolate (source animal id): 53 | – | 0.5 (≈ 1.4 µM)
isolate (source animal id): 55 | – | 0.5 (≈ 1.4 µM)
isolate (source animal id): 56 | – | 0.5 (≈ 1.4 µM)
isolate (source animal id): 57 | – | > 1
isolate (source animal id): 79 | 1 (≈ 2.8 µM) | –
isolate (source animal id): 88 | 0.25 (≈ 0.7 µM) | –
isolate (source animal id): 91 | 0.25 (≈ 0.7 µM) | –
isolate (source animal id): 92 | 1 (≈ 2.8 µM) | –
isolate (source animal id): 100 | – | > 1
isolate (source animal id): 103 | – | 0.5 (≈ 1.4 µM)
isolate (source animal id): 107 | – | 0.5 (≈ 1.4 µM)
isolate (source animal id): 108 | – | 0.5 (≈ 1.4 µM)
isolate (source animal id): 111 | 0.25 (≈ 0.7 µM) | –
isolate (source animal id): 112 | – | 0.5 (≈ 1.4 µM)
isolate (source animal id): 113 | – | > 1
isolate (source animal id): 121 | – | 0.5 (≈ 1.4 µM)
isolate (source animal id): 122 | 1 (≈ 2.8 µM) | 0.5 (≈ 1.4 µM)
isolate (source animal id): 123 | 0.5 (≈ 1.4 µM) | > 1
isolate (source animal id): 126 | – | > 1
isolate (source animal id): 133 | 1 (≈ 2.8 µM) | > 1
isolate (source animal id): 135 | – | > 1
isolate (source animal id): 138 | – | > 1
isolate (source animal id): 141 | – | > 1
isolate (source animal id): 142 | – | > 1
isolate (source animal id): 145 | – | > 1
isolate (source animal id): 149 | – | ≤ 0.12
isolate (source animal id): 151 | – | ≤ 0.12
isolate (source animal id): 152 | – | > 1
isolate (source animal id): 154 | – | ≤ 0.12
isolate (source animal id): 158 | 1 (≈ 2.8 µM) | –
isolate (source animal id): 159 | – | > 1
isolate (source animal id): 162 | – | > 1
isolate (source animal id): 168 | 0.5 (≈ 1.4 µM) | –
isolate (source animal id): 169 | 0.5 (≈ 1.4 µM) | –
isolate (source animal id): 170 | – | ≤ 0.12
isolate (source animal id): 171 | 0.5 (≈ 1.4 µM) | ≤ 0.12
isolate (source animal id): 172 | – | ≤ 0.12
isolate (source animal id): 173 | – | ≤ 0.12
isolate (source animal id): 175 | > 1 | –
isolate (source animal id): 177 | > 1 | –
isolate (source animal id): 179 | – | ≤ 0.12
isolate (source animal id): 180 | – | ≤ 0.12
isolate (source animal id): 181 | 0.5 (≈ 1.4 µM) | –
isolate (source animal id): 182 | 1 (≈ 2.8 µM) | –
isolate (source animal id): 183 | 1 (≈ 2.8 µM) | ≤ 0.12
isolate (source animal id): 186 | – | ≤ 0.12
isolate (source animal id): 187 | 0.5 (≈ 1.4 µM) | ≤ 0.12
isolate (source animal id): 188 | – | ≤ 0.12
isolate (source animal id): 190 | 0.5 (≈ 1.4 µM) | ≤ 0.12
isolate (source animal id): 191 | – | ≤ 0.12
isolate (source animal id): 192 | – | ≤ 0.12
isolate (source animal id): 194 | 0.5 (≈ 1.4 µM) | –
isolate (source animal id): 195 | 0.5 (≈ 1.4 µM) | –
isolate (source animal id): 197 | 0.5 (≈ 1.4 µM) | –
isolate (source animal id): 201 | – | ≤ 0.12
isolate (source animal id): 202 | – | ≤ 0.12
isolate (source animal id): 209 | – | ≤ 0.12
isolate (source animal id): 211 | 1 (≈ 2.8 µM) | ≤ 0.12
isolate (source animal id): 214 | > 1 | –
isolate (source animal id): 220 | – | ≤ 0.12
isolate (source animal id): 221 | – | ≤ 0.12
isolate (source animal id): 222 | 0.5 (≈ 1.4 µM) | –
isolate (source animal id): 223 | 0.5 (≈ 1.4 µM) | ≤ 0.12
isolate (source animal id): 228 | 0.5 (≈ 1.4 µM) | –
isolate (source animal id): 230 | 0.5 (≈ 1.4 µM) | –
isolate (source animal id): 233 | – | > 1
isolate (source animal id): 235 | 0.5 (≈ 1.4 µM) | –
isolate (source animal id): 236 | > 1 | –
isolate (source animal id): 237 | – | > 1
isolate (source animal id): 239 | > 1 | –
isolate (source animal id): 241 | 0.5 (≈ 1.4 µM) | > 1
isolate (source animal id): 244 | 0.5 (≈ 1.4 µM) | –
isolate (source animal id): 246 | 0.5 (≈ 1.4 µM) | –
isolate (source animal id): 247 | 0.5 (≈ 1.4 µM) | –
isolate (source animal id): 250 | 0.25 (≈ 0.7 µM) | –
isolate (source animal id): 252 | > 1 | 0.25 (≈ 0.7 µM)
isolate (source animal id): 253 | – | 0.5 (≈ 1.4 µM)
isolate (source animal id): 259 | – | > 1
isolate (source animal id): 260 | – | 0.5 (≈ 1.4 µM)
isolate (source animal id): 262 | – | > 1
isolate (source animal id): 268 | 0.25 (≈ 0.7 µM) | –
isolate (source animal id): 282 | 1 (≈ 2.8 µM) | > 1
isolate (source animal id): 285 | 1 (≈ 2.8 µM) | –
isolate (source animal id): 287 | – | 0.5 (≈ 1.4 µM)
isolate (source animal id): 288 | – | ≤ 0.12
isolate (source animal id): 289 | 0.5 (≈ 1.4 µM) | –
isolate (source animal id): 290 | 0.5 (≈ 1.4 µM) | –
isolate (source animal id): 291 | – | ≤ 0.12
isolate (source animal id): 293 | – | 0.5 (≈ 1.4 µM)
isolate (source animal id): 296 | 0.5 (≈ 1.4 µM) | –
isolate (source animal id): 298 | 0.5 (≈ 1.4 µM) | 0.5 (≈ 1.4 µM)
isolate (source animal id): 299 | – | 0.5 (≈ 1.4 µM)
isolate (source animal id): 300 | – | ≤ 0.12
isolate (source animal id): 301 | 0.5 (≈ 1.4 µM) | –
isolate (source animal id): 302 | – | 0.5 (≈ 1.4 µM)
isolate (source animal id): 304 | – | 0.5 (≈ 1.4 µM)
isolate (source animal id): 306 | – | ≤ 0.12
isolate (source animal id): 308 | – | ≤ 0.12
isolate (source animal id): 309 | – | ≤ 0.12
isolate (source animal id): 310 | > 1 | –
isolate (source animal id): 313 | – | 0.5 (≈ 1.4 µM)
isolate (source animal id): 318 | – | 0.25 (≈ 0.7 µM)
isolate (source animal id): 320 | 0.5 (≈ 1.4 µM) | ≤ 0.12
isolate (source animal id): 321 | – | 0.5 (≈ 1.4 µM)
isolate (source animal id): 323 | – | 0.5 (≈ 1.4 µM)
isolate (source animal id): 324 | – | 0.5 (≈ 1.4 µM)
isolate (source animal id): 326 | – | 0.5 (≈ 1.4 µM)
isolate (source animal id): 328 | – | 0.5 (≈ 1.4 µM)
isolate (source animal id): 329 | – | 0.5 (≈ 1.4 µM)
isolate (source animal id): 331 | 1 (≈ 2.8 µM) | –
isolate (source animal id): 333 | 0.5 (≈ 1.4 µM) | 0.5 (≈ 1.4 µM)
isolate (source animal id): 335 | – | 0.5 (≈ 1.4 µM)
isolate (source animal id): 338 | – | 0.5 (≈ 1.4 µM)
isolate (source animal id): 341 | > 1 | –
